Reference: patent publication US7838562B2, “Methods of inhibiting vascular permeability and apoptosis” (University of Connecticut, priority 2004, dated 2010)

How the values were obtained:
HUVEC = HUVEC migration (96 well chemotaxis microchamber)
phospho-ERK-1/2 = experiment: Western blot of ERK-1/2 phosphorylation in HUVEC; assay type: cell-based, human; conditions: 5 minute stimulation
Source text: (§1) Endothelial cell morphogenesis, a phenomenon that requires endothelial cell migration, survival and adherens junction assembly, is mediated by the ligand-dependent activation of S1P1 and S1P3 receptors. […] The effects of FTY720-P and analogs on Akt and ERK phosphorylation in HUVEC were studied in a Western blot analysis. Confluent cultures of HUVEC cells were serum starved for two hours in 0.1% ffa-BSA M199 before treatments. Then, they were washed with ice-cold phosphate buffered saline (PBS) containing 1 mM sodium fluoride and 1 mM sodium orthovanadate and homogenized in radioimmunoprecipitation assay buffer (0.1% sodium dodecyl sulfate (SDS), 0.5% sodium deoxycholate, 1% NP-40, 1 mM sodium orthovanadate, 50 mM β-glycerophosphate and 1× protease inhibitor cocktail). Samples were centrifuged 10,000×g for 10 minutes, and protein concentrations of supernatants were determined by Bradford assay (BioRad Protein Dye Reagent). Equal amounts of protein were separated on a 10% polyacrylamide gel and blotted to a nitrocellulose membrane. Immunoblot analysis was performed using Phospho-Akt, Akt, phospho-ERK1/2 or ERK-1/2 antibodies.

VE-cadherin = VE-cadherin localization by immunofluorescence in HUVEC; assay type: cell-based, human; conditions: 30 minutes; 10 nM (S1P 100 nM)
Description: The effects of FTY720-P and (R)-AFD on the localization of VE-cadherin were studied using immunofluorescence analysis. In this study, 2×10^5 cells were plated in 35 millimeter glass bottom petri dishes. Three days later, the cells were washed and serum starved for 3 hours before treatments. Then, the cells were washed with ice-cold PBS, fixed, and immunofluorescence analysis with VE-cadherin antibody was conducted (1 μg/ml Santa Cruz). The primary antibody staining was visualized with Rhodamine-conjugated goat anti-mouse (1:1000, Cappel) IgG. Confocal microscopy was conducted on a Zeiss LSM 510 laser-scanning confocal microscope. Rhodamine fluorescence was excited using a 543 nm Helium/Neon laser and emitted fluorescence was detected with a […] long-pass filter.

SK2 = molecular target: T1, SK2 (Mus musculus, UniProt Q9JIA7); conditions: SK2-[…]T; 100 μM FTY720 or (R)-AAL, 20 μM sphingosine
T1 sequence (Q9JIA7 1-617): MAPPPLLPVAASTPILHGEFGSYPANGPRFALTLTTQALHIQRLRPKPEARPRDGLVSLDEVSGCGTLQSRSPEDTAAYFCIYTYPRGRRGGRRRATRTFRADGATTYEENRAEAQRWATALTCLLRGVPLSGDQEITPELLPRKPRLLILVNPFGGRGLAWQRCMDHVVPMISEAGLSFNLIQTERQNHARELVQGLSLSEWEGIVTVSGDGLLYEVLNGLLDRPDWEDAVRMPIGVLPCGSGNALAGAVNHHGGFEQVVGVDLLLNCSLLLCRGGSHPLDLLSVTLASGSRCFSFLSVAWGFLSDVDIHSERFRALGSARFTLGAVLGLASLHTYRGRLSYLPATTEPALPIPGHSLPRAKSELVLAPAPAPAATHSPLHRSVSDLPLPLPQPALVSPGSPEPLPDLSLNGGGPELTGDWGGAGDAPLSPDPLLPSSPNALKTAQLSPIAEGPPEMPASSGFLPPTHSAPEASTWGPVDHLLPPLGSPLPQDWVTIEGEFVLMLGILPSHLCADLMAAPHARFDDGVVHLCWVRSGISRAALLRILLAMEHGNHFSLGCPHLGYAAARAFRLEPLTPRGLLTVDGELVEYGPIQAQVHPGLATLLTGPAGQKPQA

[1] = system: kinase activity present in HUVEC (sphingosine kinase); experiment: in vitro kinase assay with total cell extract from HUVEC; assay type: biochemical, human; conditions: HUVEC total cell extract; 100 μM FTY720 or AAL, 20 μM sphingosine; 30 minutes
Description: To confirm that FTY720 and (R)-AAL are phosphorylated by endothelial cells, an in vitro kinase assay was performed with both total cell extract and conditioned medium from HUVEC. […] Cells were scraped at 4° C. with 400 μl of 25 mM HEPES pH 7.5, […], 1× protease inhibitor mixture, and disrupted by brief sonication. Cellular homogenates were centrifuged for 10 minutes, 4° C. at 20,000×g. In the kinase assay, 300 μl of conditioned medium (derived from 5×10^5 cells for 3 hours of incubation) or 10 μg of total cell extract from HUVEC were used as a source of kinase activity. […] Lipids were extracted and samples were resuspended in 50 μl of chloroform. Lipids were resolved by TLC on Silica Gel G60 using 1-butanol/acetic acid/water (60/20/20 volume/volume) buffer and quantified with a PhosphorImager (Molecular Dynamics).

phospho-Akt = experiment: Western blot of Akt phosphorylation in HUVEC; assay type: cell-based, human; conditions: 5 minute stimulation
Source text: as §1

[2] = system: VEGF-induced vascular permeability; experiment: mouse ear microvascular permeability assay (VEGF-induced); assay type: in vivo, FVB/N mice; conditions: mice, single oral administration (gavage, 50 μg) 5 hours prior
Description: The role of plasma borne FTY720-P or (R)-AFD in the regulation of vascular permeability was tested in vivo. In order to test this possibility, an in vivo vascular permeability model was used in FTY720, (R)-AFD or (S)-AAL-pretreated mice. […] Five hours post-gavage, animals were anesthetized with 2% Avertin™ (0.5 cc/20 g) and infused through the tail vein with 100 μl FITC-dextran (5 mg/ml, 165 kDa). Animals were placed on a warming table under a fluorescent dissecting microscope (Zeiss STV11, Zeiss, Inc.) and the central vessels in the ear were imaged. Control saline or mouse vascular endothelial growth factor (mVEGF, 10 ng/ml) was injected subdermally into the middle ear using a 30 gauge needle (30 μl). Ear vasculature was then imaged with fixed exposure times in a stationary position from 5 minutes to 120 minutes post-injection. Fluorescence images were then quantified using pixel-based threshold in ImageProPlus (Media Cybernetics, Inc.) and quantified.

SK1 = SK1 (Mus musculus, UniProt Q8CI15); conditions: SK1-293T; 20 μM sphingosine
Sequence of SK1 (Q8CI15 1-388 isoform Q8CI15-2): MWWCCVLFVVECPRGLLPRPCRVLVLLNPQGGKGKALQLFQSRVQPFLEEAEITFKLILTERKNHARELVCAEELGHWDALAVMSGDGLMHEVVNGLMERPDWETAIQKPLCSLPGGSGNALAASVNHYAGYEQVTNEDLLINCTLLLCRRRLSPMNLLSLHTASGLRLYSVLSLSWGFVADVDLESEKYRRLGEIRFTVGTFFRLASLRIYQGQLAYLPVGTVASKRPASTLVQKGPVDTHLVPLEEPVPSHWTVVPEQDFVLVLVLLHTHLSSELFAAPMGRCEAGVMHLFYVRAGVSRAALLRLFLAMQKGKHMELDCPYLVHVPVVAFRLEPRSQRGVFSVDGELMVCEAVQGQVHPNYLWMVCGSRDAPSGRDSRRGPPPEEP

specific activity (phosphorylation of the substrate) (SK1)	Compound	migration induced by conditioned medium (HUVEC; compound incubated with HUVEC for 3 hours, conditioned medium used as chemoattractant)	induction of endothelial cell migration (HUVEC; compound used directly as chemoattractant, 4 hours)	ERK-1/2 phosphorylation (in words) (phospho-ERK-1/2)	VE-cadherin localization at cell-cell contact regions / translocation to adherens junctions (VE-cadherin)	specific activity (phosphorylation of the substrate) (SK2)	specific activity (phosphorylation of the substrate) [1]	Akt phosphorylation (in words) (phospho-Akt)	inhibition of vascular permeability induced by VEGF [2]
	CCCCCCCCc1ccc(CCC(N)(CO)CO)cc1 [FTY720, 2-amino-2-[2-(4-octaphenyl)ethyl]propane-1,3 diol, reference compound]	activated into potent chemoattractants for endothelial cells	Neither FTY720 nor its structural analog (R)-AAL induced endothelial cell migration	did not induce phospho-Akt or phospho-ERK-1/2 levels	did not induce VE-cadherin translocation to the adherens junctions	41.6 pmol/min/mg	3.85 ± 0.75 pmol/mg/min	did not induce phospho-Akt or phospho-ERK-1/2 levels	profoundly suppressed vascular permeability induced by VEGF
48.1 pmol/mg/min	CCCCCCCCCCCCC/C=C/[C@@H](O)[C@@H](N)CO [sphingosine, Sphingosine]					319.9 pmol/min/mg	75.7 ± 6 pmol/mg/min		
